In ChEMBL document CHEMBL5029170, “Discovery of novel triazole compounds as selective IL-1β releasement inhibitors” (Bioorg Med Chem Lett, 2021):
Activity calls are given as the source filed them. The rule behind the calls is not given here.

How the values were obtained:
[1] = Selectivity index, ratio of antiinflammatory activity in mouse BMDM cells assessed as inhibition of TNF-alpha production to antiinflammatory activity in mouse BMDM cells assessed as inhibition of IL1-beta production; type: functional
[2] = Antiinflammatory activity in mouse BMDM cells assessed as inhibition of IL1-beta production relative to control; type: functional
[3] = Antiinflammatory activity in mouse BMDM cells assessed as inhibition of TNF-alpha production relative to control; type: functional
[4] = Selectivity index, ratio of IC50 for antiinflammatory activity in mouse BMDM cells assessed as inhibition of TNF-alpha production to IC50 for antiinflammatory activity in mouse BMDM cells assessed as inhibition of IL1-beta production; type: functional
[5] = Antiinflammatory activity in mouse BMDM cells assessed as inhibition of TNF-alpha production; type: functional, cell-based
[6] = Antiinflammatory activity in mouse BMDM cells assessed as inhibition of IL1-beta production; type: functional, cell-based
[7] = biological target: NACHT, LRR and PYD domains-containing protein 3 (Mus musculus) (UniProt Q8R4B8); experiment: Inhibition of NLRP3 inflammasome activation in LPS-primed immortalized mouse BMDM cells assessed as reduction in ATP-induced mature IL-1beta expression in supernatant at 5 to 20 uM by western blot analysis; type: cell-based; details: dose 5-20 µM
Sequence of NACHT, LRR and PYD domains-containing protein 3 (Mus musculus) (Q8R4B8 whole entry, the tested form may be a part): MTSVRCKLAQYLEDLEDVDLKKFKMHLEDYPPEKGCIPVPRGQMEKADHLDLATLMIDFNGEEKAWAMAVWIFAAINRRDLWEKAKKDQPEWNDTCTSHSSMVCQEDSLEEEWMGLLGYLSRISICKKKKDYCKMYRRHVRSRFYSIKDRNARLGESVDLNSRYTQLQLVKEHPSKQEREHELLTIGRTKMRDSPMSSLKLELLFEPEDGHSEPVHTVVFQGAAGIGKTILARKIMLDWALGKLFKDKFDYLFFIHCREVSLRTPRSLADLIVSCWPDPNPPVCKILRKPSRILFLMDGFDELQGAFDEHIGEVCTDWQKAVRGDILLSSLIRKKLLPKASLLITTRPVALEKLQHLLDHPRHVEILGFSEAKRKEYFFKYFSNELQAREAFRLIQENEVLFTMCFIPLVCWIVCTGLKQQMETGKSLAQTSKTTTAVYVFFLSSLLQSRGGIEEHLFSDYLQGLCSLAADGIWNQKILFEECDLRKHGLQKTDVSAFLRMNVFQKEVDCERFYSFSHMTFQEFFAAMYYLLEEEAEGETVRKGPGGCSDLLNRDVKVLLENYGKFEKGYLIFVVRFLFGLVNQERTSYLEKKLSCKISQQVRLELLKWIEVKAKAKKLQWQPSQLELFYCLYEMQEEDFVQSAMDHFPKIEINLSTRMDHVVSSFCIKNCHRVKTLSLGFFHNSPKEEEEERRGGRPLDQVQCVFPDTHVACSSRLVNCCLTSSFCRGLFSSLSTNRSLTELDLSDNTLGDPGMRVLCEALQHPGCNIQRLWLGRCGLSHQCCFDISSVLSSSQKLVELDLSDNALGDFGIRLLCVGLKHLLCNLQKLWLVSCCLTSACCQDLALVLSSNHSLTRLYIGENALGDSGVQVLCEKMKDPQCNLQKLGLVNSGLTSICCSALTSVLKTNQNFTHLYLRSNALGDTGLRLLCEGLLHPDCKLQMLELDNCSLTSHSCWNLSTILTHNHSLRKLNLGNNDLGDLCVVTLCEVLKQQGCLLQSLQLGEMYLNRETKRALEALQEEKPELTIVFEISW

[8] = biological target: NACHT, LRR and PYD domains-containing protein 3 (Mus musculus) (UniProt Q8R4B8); experiment: Inhibition of NLRP3 inflammasome activation in LPS-primed immortalized mouse BMDM cells assessed as effect on ATP-induced NLRP3 level in cell lysate at 5 to 20 uM by western blot analysis; type: subcellular; details: dose 5-20 µM
[9] = biological target: NACHT, LRR and PYD domains-containing protein 3 (Mus musculus) (UniProt Q8R4B8); experiment: Inhibition of NLRP3 inflammasome activation in LPS-primed mouse BMDM cells assessed as inhibition of LPS/ATP induced IL-1beta release by ELISA; type: cell-based
[10] = biological target: NACHT, LRR and PYD domains-containing protein 3 (Mus musculus) (UniProt Q8R4B8); experiment: Inhibition of NLRP3 inflammasome activation in LPS-primed immortalized mouse BMDM cells assessed as reduction in ATP-induced cleaved caspase-1 expression in supernatant at 5 to 20 uM by western blot analysis; type: cell-based; details: dose 5-20 µM
[11] = biological target: NACHT, LRR and PYD domains-containing protein 3 (Mus musculus) (UniProt Q8R4B8); experiment: Inhibition of NLRP3 inflammasome activation in LPS-primed immortalized mouse BMDM cells assessed as effect on ATP-induced pro-IL-1beta level in cell lysate at 5 to 20 uM by western blot analysis; type: subcellular; details: dose 5-20 µM
[12] = biological target: NACHT, LRR and PYD domains-containing protein 3 (Mus musculus) (UniProt Q8R4B8); experiment: Inhibition of NLRP3 inflammasome activation in LPS-primed immortalized mouse BMDM cells assessed as inhibition of LPS/ATP induced IL-1beta release by ELISA; type: cell-based

| SMILES | Selectivity Index [1] | inhibition (INH) [2] | inhibition (INH) [3] | other results |
| --- | --- | --- | --- | --- |
| NC(=O)c1nnn(Cc2cc(Cl)c(C(=O)c3ccc(Cl)cc3)c(Cl)c2)c1NC(=O)CCCBr | 19.51 | 53.09% | -2.72% | – |
| CCC(CC)C(=O)Nc1c(C(N)=O)nnn1Cc1cc(Cl)c(C(=O)c2ccc(Cl)cc2)c(Cl)c1 | 13.43 | 77.01% | 5.73% | Ratio IC50 [4]: >12.37; IC50 [5]: > 100 µM; IC50 [6]: 8.08 µM |
| NC(=O)c1nnn(Cc2ccc3ccccc3c2)c1N | – | -26.65% | 2.5% | – |
| CC(C)(C)C(=O)N(C(=O)C(C)(C)C)c1c(C(N)=O)nnn1Cc1cc(Cl)c(C(=O)c2ccc(Cl)cc2)c(Cl)c1 | – | -8.41% | 17.92% | – |
| CCNc1c(C(N)=O)nnn1Cc1cc(Cl)c(C(=O)c2ccc(Cl)cc2)c(Cl)c1 | 1 | 57.89% | 57.8% | – |
| Nc1c(C(=O)NCCOCCOCCO)nnn1Cc1cc(Cl)c(C(=O)c2ccc(Cl)cc2)c(Cl)c1 | 5.3 | 42.65% | 8.04% | – |
| CC(C)(C)C(=O)Nc1c(C(N)=O)nnn1Cc1cc(Cl)c(C(=O)c2ccc(Cl)cc2)c(Cl)c1 | 0.74 | 68.75% | 92.89% | – |
| CCC(CC)C(=O)N(C(=O)C(CC)CC)c1c(C(N)=O)nnn1Cc1cc(Cl)c(C(=O)c2ccc(Cl)cc2)c(Cl)c1 | – | -22.74% | 12.68% | – |
| CNc1c(C(N)=O)nnn1Cc1cc(Cl)c(C(=O)c2ccc(Cl)cc2)c(Cl)c1 | 3.71 | 57.66% | 15.53% | Ratio IC50 [4]: >18.22; IC50 [5]: > 100 µM; inhibition [7]: Active; inhibition [8]: inactive; inhibition [9]: Dose-Dependent Effect; IC50 [6]: 5.49 µM; inhibition [10]: Active; inhibition [11]: inactive; inhibition [12]: Dose-Dependent Effect |
| NC(=O)c1cn(Cc2cc(Cl)c(C(=O)c3ccc(Cl)cc3)c(Cl)c2)nn1 | 1.68 | 50.67% | 30.18% | – |
| NC(=O)c1nnn(Cc2ccccc2)c1N | – | -6.29% | -12.61% | – |
| CCCC(=O)Nc1c(C(N)=O)nnn1Cc1cc(Cl)c(C(=O)c2ccc(Cl)cc2)c(Cl)c1 | 1.56 | 74.89% | 47.9% | Ratio IC50 [4]: 2.25; IC50 [5]: 26.8 µM; IC50 [6]: 11.9 µM |
| CN1CCN(C(=O)c2nnn(Cc3cc(Cl)c(C(=O)c4ccc(Cl)cc4)c(Cl)c3)c2N)CC1 | 0.38 | 36.62% | 97% | – |
| Nc1c(C(=O)NCCOCCO)nnn1Cc1cc(Cl)c(C(=O)c2ccc(Cl)cc2)c(Cl)c1 | 1.12 | 62% | 5.3% | – |
| CCC(=O)N(C(=O)CC)c1c(C(N)=O)nnn1Cc1cc(Cl)c(C(=O)c2ccc(Cl)cc2)c(Cl)c1 | – | -23.37% | 11.95% | – |
| CC(=O)c1nnn(Cc2cc(Cl)c(C(=O)c3ccc(Cl)cc3)c(Cl)c2)c1N | 0.8 | 39.49% | 49.4% | – |
| NC(=O)c1nnn(Cc2cc(Cl)c(C(=O)c3ccc(Cl)cc3)c(Cl)c2)c1NC(=O)c1ccccc1 | 0.53 | 46.29% | 86.58% | – |
| CCC(=O)Nc1c(C(N)=O)nnn1Cc1cc(Cl)c(C(=O)c2ccc(Cl)cc2)c(Cl)c1 | 3.33 | 47.39% | 14.25% | – |
| CNC(=O)c1nnn(Cc2cc(Cl)c(C(=O)c3ccc(Cl)cc3)c(Cl)c2)c1N | 1.26 | 58.34% | 46.35% | – |

| SMILES | Selectivity Index [1] | inhibition (INH) [2] | inhibition (INH) [3] | other results |
| --- | --- | --- | --- | --- |
| NC(=O)c1nnn(Cc2cc(Cl)c(C(=O)c3ccc(Cl)cc3)c(Cl)c2)c1N(C(=O)C1CC1)C(=O)C1CC1 | – | -36.41% | 48.7% | – |
| Nc1c(C(=O)N2CCCCC2)nnn1Cc1cc(Cl)c(C(=O)c2ccc(Cl)cc2)c(Cl)c1 | 0.51 | 27.12% | 52.43% | – |
| CC(C)C(=O)N(C(=O)C(C)C)c1c(C(N)=O)nnn1Cc1cc(Cl)c(C(=O)c2ccc(Cl)cc2)c(Cl)c1 | – | -22.3% | 20.24% | – |
| NC(=O)c1nnn(Cc2cc(Cl)c(C(=O)c3ccc(Cl)cc3)c(Cl)c2)c1NC(=O)c1ccco1 | 2.65 | 56.91% | 21.44% | – |
| N#Cc1nnn(Cc2cc(Cl)c(C(=O)c3ccc(Cl)cc3)c(Cl)c2)c1N | 0.78 | 64.01% | 82.32% | – |
| CN(C)c1c(C(N)=O)nnn1Cc1cc(Cl)c(C(=O)c2ccc(Cl)cc2)c(Cl)c1 | 0.87 | 39.86% | 45.89% | – |
| NC(=O)c1nnn(Cc2cc(Cl)c(C(=O)c3ccc(Cl)cc3)c(Cl)c2)c1NC(=O)C1CC1 | 0.78 | 57.13% | 73.51% | – |
| NC(=O)c1nnn(Cc2cc(Cl)c(C(=O)c3ccc(Cl)cc3)c(Cl)c2)c1N [CARBOXYAMIDOTRIAZOLE] | 0.82 | 71.94% | 87.54% | – |
| Nc1c(C(=O)NCc2ccccc2)nnn1Cc1cc(Cl)c(C(=O)c2ccc(Cl)cc2)c(Cl)c1 | 2.8 | 21.22% | 7.59% | – |
| NC(=O)c1nnn(Cc2cc(Cl)c(C(=O)c3ccc(Cl)cc3)c(Cl)c2)c1NC(=O)CCBr | 1.07 | 87.06% | 81.52% | Ratio IC50 [4]: 1.96; IC50 [5]: 9.77 µM; IC50 [6]: 4.97 µM |
| Nc1c(C(=O)NCCO)nnn1Cc1cc(Cl)c(C(=O)c2ccc(Cl)cc2)c(Cl)c1 | 4.85 | 72.28% | 15.01% | – |
| Nc1c(C(=O)N2CCCC2)nnn1Cc1cc(Cl)c(C(=O)c2ccc(Cl)cc2)c(Cl)c1 | 0.65 | 33.52% | 51.44% | – |
| COC(=O)c1nnn(Cc2cc(Cl)c(C(=O)c3ccc(Cl)cc3)c(Cl)c2)c1N | 2.72 | 18.59% | -6.83% | – |
| NC(=O)c1nnn(Cc2ccc(-c3ccccc3)cc2)c1N | – | -18.17% | 0.39% | – |
| CCNC(=O)c1nnn(Cc2cc(Cl)c(C(=O)c3ccc(Cl)cc3)c(Cl)c2)c1N | 0.71 | 53.9% | 75.89% | – |
| CN(C)C(=O)c1nnn(Cc2cc(Cl)c(C(=O)c3ccc(Cl)cc3)c(Cl)c2)c1N | 0.75 | 43.42% | 57.9% | – |
| CC(C)C(=O)Nc1c(C(N)=O)nnn1Cc1cc(Cl)c(C(=O)c2ccc(Cl)cc2)c(Cl)c1 | 3.88 | 30.69% | 7.91% | – |
| NC(=O)c1nnn(Cc2ccc(C(=O)c3ccccc3)cc2)c1N | – | 1.36% | -16.37% | – |
